Measurements published in paper PMC12718081 (ACS Infectious Diseases, 2025).

Assays:
Type in all cases: cell-based, Schistosoma mansoni
S. mansoni schistosomula = experiment: Roboworm high-content screening assay on schistosomula (motility and phenotype scores); conditions: 72 h
Experimental: All PZQ derivatives were synthesized in the racemic form and evaluated as such. The compounds were initially screened at 10 μM against S. mansoni schistosomula using the Roboworm high-content screening assay , and were declared hits or nonhits based on their effect on parasites’ motility and phenotype scores after 72 h of incubation. As none of the compounds were considered hits at this concentration, we performed a titration from 6.25 to 50 μM (Figure S27).
DMSO was included as a negative control. Compounds were considered hits if both their motility and phenotype scores were lower than −0.35 and −0.15, respectively (region delimited by the dashed lines). In red, PZQ analogues selected for further analysis.
For the collection of schistosomula, B. glabrata snails infected with S. mansoni were shed for 2 h under light at 26 °C. Cercariae were collected, mechanically transformed into schistosomula as previously described.
DMSO (0.625%, v/v) was included as a negative control. Z′ values for the assay were calculated to be 0.542 for phenotype and 0.361 for motility. […]
(§1) Auranofin (AUR) was included at 10 µM as positive control. DMSO was included as a negative control. Compounds were considered hits if both their motility and phenotype scores were lower than -0.35 and -0.15, respectively (region delimited by the […]

[1] = system: juvenile schistosomes (21 days p.i.); experiment: XTT juvenile viability assay; conditions: 48 h; for parasite metabolic activity compared to the DMSO control group (XTT): 100 μM
Sm.TRPMPZQ Y1392A mutant = experiment: Ca2+ reporter activation assay, Sm.TRPMPZQ point mutant Y1392A; conditions: 100 μM
Experimental: This trend likely indicates a similar binding mode.
The colored cells represent the range of EC50 values for each compound based on their ability to activate the channel.
(§2) The Ca^2+ reporter assay was performed using a Fluorescence Imaging Plate Reader (FLIPR) system, as described in the Supporting Information.
(§3) Adult worm ex-vivo high-content assay
(§4) “Area” and “False Negative Rate” from the MeasureObjectSizeShape and MeasureObjectOverlap modules, respectively. These measurements were then modeled by a multilevel generalized linear statistical model. The effects of the experimental treatments on […]
(§5) The half-maximal inhibitory
(§6) Windows (GraphPad Software, Boston, MA, USA; www.graphpad.com). […]
(§7) with DMSO as a negative control. […]
(§8) reader. […] The fluorescence
(§9) Untransfected HEK293 cells were used as a control.
(§10) 10% fetal bovine serum (FBS). […]
(§11) atmosphere containing 5% CO₂. Following incubation, the growth medium was removed and […]
buffer containing 2.5 mM probenecid in HBSS (with Ca²⁺ and Mg²⁺), 20 mM HEPES, 0.3% BSA (Sigma, A7030), and 0.03% L-ascorbic acid (Sigma). Cells were incubated for 40 minutes at 37 °C and subsequently for 20 minutes at room temperature. […]
(§12) instrument (Molecular Devices). Baseline fluorescence was recorded for 20 seconds, followed by the addition of 5 µL of each drug solution, after which fluorescence was measured continuously for 250 seconds. […]

Sm.TRPMPZQ = experiment: Ca2+ reporter assay in antagonist mode (block of PZQ activation of Sm.TRPMPZQ); conditions: preincubation 1 nM-100 μM for 10 min, data not shown
Experimental: as §2, §3, §4, §5, §6, §7, §8, §9, §10, §11
buffer containing 2.5 mM probenecid in HBSS (with Ca²⁺ and Mg²⁺), 20 mM HEPES, 0.3% BSA (Sigma, A7030), and 0.03% L-ascorbic acid (Sigma). Cells were incubated for 40 minutes at 37 °C and subsequently for 20 minutes at room temperature. A total of seven PZQ derivatives were tested, using racemic PZQ included as a positive control on each assay plate. Drug dilutions were prepared in assay buffer without dye and probenecid and dispensed into separate flat-bottom 384-well plates. Calcium flux measurements were performed at room temperature using a […]
as §12
as §1, with “schistosomula after 72h of incubation using the Roboworm high-content screening assay. Auranofin” for “Auranofin”
(1 picture or pasted object on this page, not shown here)

Row | SMILES | hit classification (motility and phenotype scores) (S. mansoni schistosomula; 12.5 μM) | hit classification (motility and phenotype scores) (S. mansoni schistosomula; 25 μM) | parasite metabolic activity compared to the DMSO control group (XTT) [1] | viability at 100 µM ([1]; Schistosoma mansoni, mean ± SD, read-out: juvenile worm viability (XTT, % residual viability)) | activity at Sm.TRPMPZQ carrying the Y1392A mutation (Sm.TRPMPZQ Y1392A mutant) | block of PZQ activation of Sm.TRPMPZQ (antagonist mode) (Sm.TRPMPZQ) | effect on parasites motility (S. mansoni schistosomula; 50 μM) | hit classification (motility and phenotype scores) (S. mansoni schistosomula; 50 μM, hit if motility < -0.35 and phenotype < -0.15)
1 | [N-]=[N+]=Nc1ccc2c(c1)C1CN(C(=O)C3CCCCC3)CC(=O)N1CC2 (stereo not drawn) [Compound 4] | borderline | declared a hit | significantly decreased | 44.6% | retained residual activity |  |  | 
2 | O=C(C1CCCCC1)N1CC(=O)N2CCc3ccc(-n4cc(C5=CCCCC5)nn4)cc3C2C1 (stereo not drawn) [Compound 5b] |  |  |  |  |  | failed to impact subsequent responses to PZQ |  | 
3 | CCCc1cn(-c2ccc3c(c2)C2CN(C(=O)C4CCCCC4)CC(=O)N2CC3)nn1 (stereo not drawn) [Compound 5e] |  |  | significantly decreased |  |  |  | significant effect | did not change their phenotype score enough to be considered a hit
